Experimental findings from patent US9593149B2, “Amylin and calcitonin receptor agonist” (Novo Nordisk A/S, priority 2014, dated 2017) are described below.

Numbered stars: 1 amine (or outer) side, 2 acyl side, 3 side chain; on linkers, the order of the positions; unused ones are H or OH. Side chains are listed from the residue outwards. Peptide text beside a SMILES is read from it. * marks the point of attachment. C20 diacid = O=C(O)CCCCCCCCCCCCCCCCCCC(=O)*; γGlu = O=C(O)[C@H](CCC(=O)[*:2])N[*:1]; AEEA = NCCOCCOCC(=O)O

For series [1], the target named is T1, rat calcitonin receptor (Rattus norvegicus, UniProt P32214).
T1 construct: expressed in transfected cells; host or cells: BHK tk'ts 13 (transient, FuGENE 6)
T1 sequence (P32214 25-479 isoform P32214-2 limits assumed): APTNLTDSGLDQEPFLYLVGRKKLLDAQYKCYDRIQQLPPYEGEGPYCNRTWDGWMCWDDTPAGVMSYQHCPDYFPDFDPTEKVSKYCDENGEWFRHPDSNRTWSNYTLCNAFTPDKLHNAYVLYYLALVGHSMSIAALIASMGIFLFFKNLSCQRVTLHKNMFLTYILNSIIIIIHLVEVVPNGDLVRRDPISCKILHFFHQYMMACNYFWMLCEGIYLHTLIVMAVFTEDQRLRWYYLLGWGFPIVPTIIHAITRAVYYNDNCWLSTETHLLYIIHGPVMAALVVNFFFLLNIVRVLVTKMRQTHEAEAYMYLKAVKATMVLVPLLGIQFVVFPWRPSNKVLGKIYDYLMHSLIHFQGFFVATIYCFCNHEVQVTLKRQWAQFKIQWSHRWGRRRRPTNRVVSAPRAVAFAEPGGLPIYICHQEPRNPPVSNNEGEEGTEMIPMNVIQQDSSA
Put plainly: Assay (VIII) binding to the rat calcitonin receptor. Conditions: membranes; read-out: rCT-R binding IC50. As for the experimental part: The morning after, the plates were washed three times in HBSS (4° C.), and lyzed in Lysis buffer (0.1 M NaOH), 1% SDS. Scintillation cocktail (MicroScint40®) was added and the plates were shaken at 500 rpm for a short period. The plate was incubated at room temperature in the dark for 1 hour and Read on a TopCounter™ (Packard). The IC50 was calculated using (one site binding competition analysis) GraphPad Prism5 as a measure of receptor affinity. Assay (VIII)—Determination of Binding to the Rat Calcitonin Receptor
The assay was performed as described above (Assay (VII)—Determination of binding to the human calcitonin receptor) with the exception that we used membranes prepared from BHK tk'ts 13 cells that were transiently transfected with the rat calcitonin receptor. The BHK tk'ts 13 cells were transiently transfected with rat calcitonin receptor using FuGENE® 6 (Roche), according to the manufacturer's recommendations. Cells were grown in DMEM with 10% FBS and 1% Pen/Strep.

The nature of series [2]: Assay (IV) determination of solubility. It counts as physicochemical. As for the experimental part:
Assay (IV)—Determination of Solubility
The mimylin peptide was dissolved in water at ˜500 nmol/ml and mixed 1:1 with a series of buffers (100 mM glycylglycine pH 3.0, 100 mM glycylglycine pH 4.0, 100 mM glycylglycine pH 5.0, 100 mM bistrispropane pH 6.0, 100 mM bistrispropane pH 6.5, 100 mM bistrispropane pH 7.0, 100 mM bistrispropane pH 7.5, 100 mM bistrispropane pH 8.0).

As for `CC(C)C[C@H](NC(=O)[C@H](C)NC(=O)[C@H](C)NC(=O)[C@@H](NC(=O)[C@H](CO)NC(=O)[C@H](CC(C)C)NC(=O)[C@H](CCC(=O)O)NC(=O)[C@H](CO)NC(=O)[C@H](C)NC(=O)COCCOCCNC(=O)CC[C@H](NC(=O)CCCCCCCCCCCCCCCCCCC(=O)O)C(=O)O)[C@@H](C)O)C(=O)NCC(=O)N[C@@H](CCCNC(=N)N)C(=O)N[C@@H](CC(C)C)C(=O)N[C@@H](CO)C(=O)N[C@@H](C)C(=O)N[C@@H](CCC(=O)O)C(=O)N[C@@H](CC(C)C)C(=O)N[C@@H](Cc1cnc[nH]1)C(=O)N[C@@H](CCC(=O)O)C(=O)N[C@@H](CC(C)C)C(=O)N[C@@H](C)C(=O)N[C@H](C(=O)N[C@@H](CC(C)C)C(=O)N1CCC[C@H]1C(=O)N[C@@H](CCCNC(=N)N)C(=O)N[C@H](C(=O)N[C@@H](CCC(=O)O)C(=O)N[C@H](C(=O)NCC(=O)N[C@@H](CO)C(=O)NCC(=O)N[C@@H](CO)C(=O)N1CCC[C@H]1C(N)=O)[C@@H](C)O)[C@@H](C)O)[C@@H](C)O` [compound 41, [N-terminal(C20 diacid-gGlu-OEG), des1, 30S, 31G]mimylin] ({C20 diacid-γGlu-AEEA}-ASELSTAALGRLSAELHELATLPRTETGSGSP-NH2), the 50% inhibitory concentration (IC50) – broadly, the point on the concentration scale where inhibition reaches its midpoint – in series [1] stood at 0.044 nM. Besides, the Solubility result in series [2] (pH 3.0), in series [2] (pH 4.0), in series [2] (pH 5.0), in series [2] (pH 6.0), in series [2] (pH 6.5) and in series [2] (pH 7.0) was “≧200 μM” in each case. Further, the Solubility result in series [2] (pH 7.5) and in series [2] (pH 8.0) was “≧200 μM” throughout.

With `CC(C)C[C@H](NC(=O)[C@H](CCCNC(=N)N)NC(=O)CNC(=O)[C@H](CC(C)C)NC(=O)[C@@H](NC(=O)[C@H](C)NC(=O)[C@@H](NC(=O)[C@H](CO)NC(=O)[C@H](CC(C)C)NC(=O)[C@H](CCC(N)=O)NC(=O)[C@H](CO)NC(=O)[C@H](C)NC(=O)CC[C@H](NC(=O)CCCCCCCCCCCCCCCCCCC(=O)O)C(=O)O)[C@@H](C)O)C(C)C)C(=O)N[C@@H](CO)C(=O)N[C@@H](CCC(N)=O)C(=O)N[C@@H](CCCNC(=N)N)C(=O)N[C@@H](CC(C)C)C(=O)N[C@@H](Cc1cnc[nH]1)C(=O)N[C@@H](CCCNC(=N)N)C(=O)N[C@@H](CC(C)C)C(=O)N[C@@H](CCC(N)=O)C(=O)N[C@H](C(=O)N[C@@H](Cc1ccc(O)cc1)C(=O)N1CCC[C@H]1C(=O)N[C@@H](CCCNC(=N)N)C(=O)N[C@H](C(=O)N[C@@H](CCC(N)=O)C(=O)N[C@H](C(=O)NCC(=O)N[C@@H](CO)C(=O)N[C@@H](CCC(N)=O)C(=O)N[C@H](C(=O)N[C@@H](Cc1ccc(O)cc1)C(N)=O)[C@@H](C)O)[C@@H](C)O)[C@@H](C)O)[C@@H](C)O` [compound 132, [N-terminal(C20 diacid-gGlu), des1, 4Q, 9V, 15Q, 16R, 19R, 21Q, 23Y, 27Q, 30S, 31Q, 32T, 33Y]mimylin] ({C20 diacid-γGlu}-ASQLSTAVLGRLSQRLHRLQTYPRTQTGSQTY-NH2), in series [1], the concentration for half-maximal inhibition (IC50) is 0.069 nM.

In the case of `CC(C)C[C@H](NC(=O)[C@H](C)NC(=O)[C@H](C)NC(=O)[C@@H](NC(=O)[C@H](CO)NC(=O)[C@H](CC(C)C)NC(=O)[C@H](CCC(=O)O)NC(=O)[C@H](CO)NC(=O)[C@H](C)NC(=O)CC[C@H](NC(=O)CCCCCCCCCCCCCCCCCCC(=O)O)C(=O)O)[C@@H](C)O)C(=O)NCC(=O)N[C@@H](CCCNC(=N)N)C(=O)N[C@@H](CC(C)C)C(=O)N[C@@H](CO)C(=O)N[C@@H](C)C(=O)N[C@@H](CCC(=O)O)C(=O)N[C@@H](CC(C)C)C(=O)N[C@@H](Cc1cnc[nH]1)C(=O)N[C@@H](CCC(=O)O)C(=O)N[C@@H](CC(C)C)C(=O)N[C@@H](C)C(=O)N[C@H](C(=O)N[C@@H](CC(C)C)C(=O)N1CCC[C@H]1C(=O)N[C@@H](CCCNC(=N)N)C(=O)N[C@H](C(=O)N[C@@H](CCC(=O)O)C(=O)N[C@H](C(=O)NCC(=O)N[C@@H](CO)C(=O)NCC(=O)N[C@@H](CO)C(=O)N[C@@H](Cc1cnc[nH]1)C(N)=O)[C@@H](C)O)[C@@H](C)O)[C@@H](C)O` [compound 60, [N-terminal(C20 diacid-gGlu), des1, 30S, 31G, 33H]mimylin] ({C20 diacid-γGlu}-ASELSTAALGRLSAELHELATLPRTETGSGSH-NH2), the IC50 in series [1] was 0.02 nM. In addition, the Solubility result in series [2] (pH 3.0), in series [2] (pH 4.0), in series [2] (pH 5.0), in series [2] (pH 6.0), in series [2] (pH 6.5) and in series [2] (pH 7.0) was “≧200 μM” throughout. Besides, the Solubility entry in series [2] (pH 7.5) and in series [2] (pH 8.0) was “≧200 μM” in each case.

Take `CC(=O)N[C@@H](C)C(=O)N[C@@H](CO)C(=O)N[C@@H](CCC(=O)O)C(=O)N[C@@H](CC(C)C)C(=O)N[C@@H](CO)C(=O)N[C@H](C(=O)N[C@@H](C)C(=O)N[C@@H](C)C(=O)N[C@@H](CC(C)C)C(=O)NCC(=O)N[C@@H](CCCNC(=N)N)C(=O)N[C@@H](CC(C)C)C(=O)N[C@@H](CO)C(=O)N[C@@H](C)C(=O)N[C@@H](CCC(=O)O)C(=O)N[C@@H](CC(C)C)C(=O)N[C@@H](Cc1cnc[nH]1)C(=O)N[C@@H](CCCCNC(=O)CC[C@H](NC(=O)CCCCCCCCCCCCCCCCCCC(=O)O)C(=O)O)C(=O)N[C@@H](CC(C)C)C(=O)N[C@@H](C)C(=O)N[C@H](C(=O)N[C@@H](CC(C)C)C(=O)N1CCC[C@H]1C(=O)N[C@@H](CCCNC(=N)N)C(=O)N[C@H](C(=O)N[C@@H](CCC(=O)O)C(=O)N[C@H](C(=O)NCC(=O)N[C@@H](CO)C(=O)NCC(=O)N[C@@H](CO)C(=O)N1CCC[C@H]1C(N)=O)[C@@H](C)O)[C@@H](C)O)[C@@H](C)O)[C@@H](C)O` [compound 70, [N-terminal(acetyl), des1, 19K(C20 diacid-gGlu), 30S, 31G]mimylin] (Ac-ASELSTAALGRLSAELHK([γGlu-C20 diacid])LATLPRTETGSGSP-NH2): the IC50 in series [1] was determined as 0.071 nM. Further, the Solubility entry in series [2] (pH 3.0), in series [2] (pH 4.0), in series [2] (pH 5.0), in series [2] (pH 6.0), in series [2] (pH 6.5) and in series [2] (pH 7.0) was “≧200 μM” each time. The Solubility entry in series [2] (pH 7.5) and in series [2] (pH 8.0) was “≧200 μM” throughout.
